Data reported in patent US8361496B2, “Phospholipid gel compositions for drug delivery and methods of treating conditions using same” (Idexx Laboratories Inc., priority 2004, dated 2013).

Test: Clinical study 5.16: serum concentration of tilmicosin after oral administration
Format: in vivo
Settings: oral 20 mg/kg, gelatin capsule with the gel of Example 5.14
Protocol: Tilmicosin was orally administered to a dog using the pharmaceutical composition of Example 5.14. A sufficient amount of the gel of example 5.14 was placed in a gelatin capsule to provide a dose of 20 mg/kg to the dog. The dog was then orally administered the gelatin capsule containing the tilmicosin pharmaceutical composition of Example 5.14. Blood was then withdrawn from the dog at various time intervals and the serum concentration of tlmicosin determined by the following procedure: (i) A C-18 cartridge (commercially available from Waters Corp. of Milford, Mass.) was connected to a 20 mL syringe and to a single diaphragm vacuum pump (commercially available from Gast Manufacturing Inc. of Benton Harbor, Mich.). […]

Compound: CC[C@H]1OC(=O)C[C@@H](O)[C@H](C)[C@@H](O[C@@H]2O[C@H](C)[C@@H](O)[C@H](N(C)C)[C@H]2O)[C@@H](CCN2C[C@H](C)C[C@H](C)C2)C[C@@H](C)C(=O)/C=C/C(C)=C/[C@@H]1CO[C@@H]1O[C@H](C)[C@@H](O)[C@@H](OC)[C@H]1OC [Tilmicosin]
- time for which tilmicosin is provided in the blood of the dog: at least 48 h
